# Assay results as given in article PMC8825254, “Rational design of Striga hermonthica-specific seed germination inhibitors” (Plant Physiology, 2021).
# Columns and labels:
# [1] = system: ShHTL7–ShMAX2-CTH interaction; assay: GST pull-down of His-ShHTL7 by CTH of ShMAX2; assay type: binding, Striga hermonthica; details: 100 µM compound, 100 µM GR24; result in words
# Experimental: Purified GST-CTH of ShMAX2 and GST were bound to the Glutathione Sepharose 4B Beads (GE healthcare). Purified 6× His-ShHTL7 was incubated with 100 μM KK023-N1 and Triton X-100 for 3 h, separately. Then apo ShHTL7 was added to the beads bound by GST-CTH of ShMAX2 in the presence and absence of 100 μM GR24. Similarly, ShHTL7 incubated with KK023-N1 and Triton X-100 were added to the beads bound by GST-CTH of ShMAX2 in the presence of 100 μM GR24. Apo ShHTL7 was added to the beads bound by GST only in the presence of 100 μM GR24 as a control. All the samples were washed with lysis buffer (50-mM Tris–HCl pH 8.0, 200 mM NaCl, 2 mM DTT) three times and then eluted with addition of 20 mM reduced glutathione. Thus, the eluted protein was subjected to Western blot using an antibody specific to 6XHis (Abcam, Cambridge, UK).
# [2] = target: T1, ShHTL7 (Striga hermonthica, UniProt A0A0M3PNA2); assay: DSF thermal stability of ShHTL7; assay type: binding; details: 0 to 100 µM; result in words
# T1 sequence (A0A0M3PNA2 1-271): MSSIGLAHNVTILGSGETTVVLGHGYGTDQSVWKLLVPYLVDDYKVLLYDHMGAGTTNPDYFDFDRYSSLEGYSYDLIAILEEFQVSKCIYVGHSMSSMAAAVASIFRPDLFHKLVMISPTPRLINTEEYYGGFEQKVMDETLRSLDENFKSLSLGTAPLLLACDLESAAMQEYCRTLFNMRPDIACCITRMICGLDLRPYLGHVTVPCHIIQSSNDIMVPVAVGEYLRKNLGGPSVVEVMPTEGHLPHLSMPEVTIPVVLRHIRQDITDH
# Experimental: About 10 µM of ShHTL7 purified protein was incubated with various concentrations of KK023-N1, Triton X-100, or KK094 (ranging from 0 to 100 µM) for 30 min. Then SYPRO Orange (reporter dye) was added to 1× final concentration. The reactions were carried out in 25 µL 1× PBs buffer. The assay was performed on CFX96 Real-Time System (BIO-RAD, Hercules, CA, USA) thermal cycler on 96-well quantitative polymerase chain reaction (qPCR) white plate, and the plate was sealed with adhesive qPCR plate seal to prevent samples evaporation ([Bai et al., 2019]). First, samples were heated to 25°C for 1 min followed by linear increase in the temperature ramp from 25°C to 99°C at a rate of 0.5°C/15 s. The change in the protein folding was monitored by the changes in the fluorescence of the reporter dye, and the data were analyzed by the machine software that plots the inflection point of fluorescence against temperature. Data were exported into Excel, and replicates were averaged to generate the graph.
# [3] = target: ShHTL5 (Striga hermonthica, UniProt A0A0M5I297); assay: YLG hydrolysis competition assay with ShHTL5; assay type: biochemical
# ShHTL5, sequence (A0A0M5I297 entry or part of it): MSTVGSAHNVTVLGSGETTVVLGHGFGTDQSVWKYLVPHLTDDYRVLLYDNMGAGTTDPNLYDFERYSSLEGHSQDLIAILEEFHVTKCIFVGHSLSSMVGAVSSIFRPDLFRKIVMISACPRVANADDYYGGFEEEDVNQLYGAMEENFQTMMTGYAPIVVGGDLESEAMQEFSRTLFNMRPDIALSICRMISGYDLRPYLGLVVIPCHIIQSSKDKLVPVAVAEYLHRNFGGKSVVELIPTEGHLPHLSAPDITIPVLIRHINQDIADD
# [4] = system: Rice WT (cv Nipponbare) seedlings; assay: Rice micro tillering assay, WT, hydroponics; assay type: in vivo, rice (Oryza sativa); details: 10, 50 and 100 µM, 2 weeks, result in words
# Experimental: (§1) Rice seeds of WT (cv Nipponbare) or SL-deficient mutant (d17), were surface sterilized with 2.5% NaClO and 0.05% of Tween-20 for 10 min, and rinsed 6 times with sterilized MilliQ water. About 30 seeds were placed on sterilized Magenta GA-7 plant culture box containing 0.5% MS medium with 0.4% agar and incubated at 30°C in dark. After 2 d, boxes were moved to a growth chamber and allowed to grow for another 5 d under fluorescent white light (130–180 μM m^−2 s^−1). Equally grown seedlings were transplanted in 50-mL black tubes filled with Hoagland nutrient solution (1 seedling/tube). Seedlings were treated with 10, 50, and 100 µM of each compound (KK023-N1, Triton X-100, and KK094). The compounds were applied twice a week for 2 weeks to test their effects on the growth of WT plants. SL-deficient seedlings (d17) were treated as WT but with the addition of 1 µM GR24. Number of tillers per plant, plant height, and dry biomass were measured at final harvest.
# [5] = system: Striga hermonthica; assay: Striga emergence study in infested rice pots under greenhouse conditions; assay type: in vivo, Striga hermonthica on rice cv IAC165; details: for Striga emergence, average number: twice per week for 4 weeks, 10 weeks after rice planting, mock 26 per pot; for Change in Striga emergence compared to mock: Figure 10B; for Rice plant height, change: Striga-infested pots, Figure 10C
# Experimental: Approximately 6,000 Striga seeds (20 mg) were weighed, mixed with sand/soil mixture (1:2 ratio), and put into a 3-L perforated plastic pot containing 0.5-L clean sand/soil mixture in the bottom. The pots were kept under greenhouse-controlled conditions at 30°C and kept moist with water for Striga preconditioning for 10 d. Formulated KK023-N1 and Triton X-100 were applied (at 100 mL per pot) at 10 and 100 µM concentration. Then three rice seedlings (cv IAC165, 10 d old) were planted in each pot after 24 h of inhibitor application. All the treatments were applied continuously twice per week for 4 weeks. Water with same amount of solvent (Cyclohexanone+Atlas-G) was used as a control. Pots were irrigated with 200 mL of Hoagland’s nutrient solution with low phosphate (4 µM) when needed. The rice plants were allowed to grow under greenhouse conditions for 10 weeks and the emerged Striga plants were counted from each pot. The height of rice plants was also measured to see impact of Striga infestation on host growth.
# [6] = system: Rice d17 seedlings; assay: Rice micro tillering assay, SL-deficient mutant d17 with GR24; assay type: in vivo, rice (Oryza sativa); details: compound with 1.0 µM GR24; result in words
# Experimental: as §1
# [7] = target: T2, OsD14 (Oryza sativa subsp. japonica, UniProt Q10QA5); assay: YLG hydrolysis competition assay with OsD14; assay type: biochemical, rice (Oryza sativa); details: Figure 3D-F; mean ± SD, n = 3; no unit printed with values (x-axis µM); read-out: IC50, OsD14-mediated YLG hydrolysis (Figure 3)
# T2 construct: made in house; host or cells: Escherichia coli BL21 (DE3)
# T2 sequence (Q10QA5 1-318): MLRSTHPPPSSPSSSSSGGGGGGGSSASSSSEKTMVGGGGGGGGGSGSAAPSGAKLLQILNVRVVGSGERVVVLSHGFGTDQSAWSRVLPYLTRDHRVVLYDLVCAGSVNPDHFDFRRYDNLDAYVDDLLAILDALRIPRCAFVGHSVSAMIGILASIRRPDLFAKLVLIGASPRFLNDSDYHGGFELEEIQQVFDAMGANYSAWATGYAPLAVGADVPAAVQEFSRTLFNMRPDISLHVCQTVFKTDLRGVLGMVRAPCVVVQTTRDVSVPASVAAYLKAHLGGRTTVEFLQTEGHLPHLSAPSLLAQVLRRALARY
structure (smiles),measurement,setting,value
COc1ccc(CCCc2cccc3c2CCN3C(=O)n2ccnn2)cc1 [KK023-N1],Effect on GR24-dependent pull-down of His-ShHTL7 by GST-CTH of ShMAX2,[1],could inhibit such interaction
same,Effect on SYPRO orange fluorescence peak of ShHTL7,[2],decreased the fluorescence of the SYPRO orange
same,Effect on melting temperature of ShHTL7,[2],did not affect the melting temperature
same,inhibition at 50 µM,"[3]; 1 h, 50 µM compound, read-out: Reduction of ShHTL5 hydrolysis activity",20%
same,IC50,"[3]; read-out: IC50, ShHTL5-mediated YLG hydrolysis",> 50 µM
same,Effect on YLG hydrolysis by ShHTL5,[3]; result in words,did not influence the YLG hydrolysis
same,Effect on dry biomass of WT rice,[4],except at 100 µM concentration that led to a reduction in biomass
same,Effect on plant height of WT rice,[4],did not observe any significant negative impact
same,Effect on tillering of WT rice,[4],did not observe any significant negative impact
same,"Striga emergence, average number",[5]; 10 µM,20 Striga plants per pot
same,Change in Striga emergence compared to mock,[5]; 10 µM,-24%
same,"Rice plant height, change",[5]; 10 µM,+17%
same,"Striga emergence, average number",[5]; 100 µM,16 Striga plants per pot
same,Change in Striga emergence compared to mock,[5]; 100 µM,38%
same,"Rice plant height, change",[5]; 100 µM,+26%
same,Effect on GR24 action on tillering of d17 rice,[6],did not block the GR24 effect on rice tillers
same,IC50,[7],29.6 ± 3.77 µM
